Experimental data taken from PMC6089501 (Journal of Medicinal Chemistry, 2018).
In brackets after ≈: the same amount, converted by molar mass. Several values for one entry are separate records, joined by “and”; a condition that tells them apart may be missing. Equal values may be shown once. Read-outs that look alike come from different tables or passages of the source.

Experiments:
M. tuberculosis H37Rv = assay: microbe, parasite or virus in culture; type: cell-based, Mycobacterium tuberculosis; conditions: for MIC90 / IC90: Mycobacterium tuberculosis, H37RV; for MIC90: read-out: MIC (MIC90); for IC90: read-out: TB-IC90_OD GEOM_MEAN
Vero cells [1] = conditions: read-out: VERO IC50
Method: (§1) Compounds were solubilized in DMSO and assayed as a 10-point 3-fold serial dilution. Compounds were incubated with cells for 2 days at 37 °C, 5% CO2. CellTiter-Glo Reagent (Promega) was added and relative luminescent units (RLU) measured.

[2] = for CL mouse MEAN: microsomes
Vero cells [3] = assay: cells; conditions: Chlorocebus sabaeus, read-out: VERO IC50
Method: as §1

Compound	MIC (MIC90) (M. tuberculosis H37Rv)	IC50 (Vero cells [1])	CL mouse MEAN ([2]; mouse)	MIC90 (M. tuberculosis H37Rv)	Cli mouse ([2]; female, CD1, mouse, pH 7.4)	IC50 (Vero cells [3])	IC90 (M. tuberculosis H37Rv)	chromatographic logD (physchem)	drop in potency / activity (M. tuberculosis H37Rv)	CL mouse MEAN ([2]; female, CD1, mouse, pH 7.4)
3-(2,2-Difluoro-2-phenylethoxy)-5-morpholinothiophene-2-carboxamide [Compound 50]	>20 (2) μM	95 µM	19.1 mL/min/g							
5-(3-Methylmorpholino)-3-phenethoxythiophene-2-carboxamide [Compound 31]	>20 (2) μM	77 µM and 79.4 µM	11.19 mL/min/g							
5-[2-Methoxyethyl(methyl)amino]-3-(2-phenylethoxy)thiophene-2-carboxamide [Compound 32]	>20 (3) μM	> 100 µM	28.42 mL/min/g							
COC(=O)c1sc(N2CCOCC2)cc1OCCc1ccccc1 [Compound 14, Methyl 5-Morpholino-3-(2-phenylethoxy)thiophene-2-carboxylate]				> 20 µM	50 mL.min^–1.g^–1	> 100 µM				
O=C(NO)c1sc(N2CCOCC2)cc1OCCc1ccccc1 [Compound 16, 5-Morpholino-3-(2-phenylethoxy)thiophene-2-carbohydroxamic Acid]		58 µM	6.073 mL/min/g	3.5 µM (≈ 1.22 µg/mL)	6 mL.min^–1.g^–1	58 µM	3.32 µM			
CCNC(=O)c1sc(N2CCOCC2)cc1OCCc1ccccc1 [Compound 22, N-Ethyl-5-morpholino-3-(2-phenylethoxy)thiophene-2-carboxamide]		56 µM	50 mL/min/g	1.7 µM (≈ 0.613 µg/mL)	50 mL.min^–1.g^–1	56 µM	1.67 µM			
NC(=O)c1sccc1OCCc1ccccc1 [Compound 27, 3-(2-Phenylethoxy)thiophene-2-carboxamide]			26 mL/min/g	> 20 µM	26 mL.min^–1.g^–1	> 100 µM	> 20 µM	2.05		
CNC(=O)c1sc(N2CC3CC2CO3)cc1OCCc1ccccc1 (stereo not drawn) [Compound 30, 5-(2-Oxa-5-azabicyclo[2.2.1]heptan-5-yl)-N-methyl-3-phenethoxythiophene-2-carboxamide]		69.2 µM	12.51 mL/min/g	3.8 µM (≈ 1.36 µg/mL)	13 mL.min^–1.g^–1	72 µM	3.64 µM		> 5 fold	
COc1ccc(CCOc2cc(N3CCOCC3)sc2C(N)=O)cc1 [Compound 36, 3-[2-(4-Methoxyphenyl)ethoxy]-5-morpholinothiophene-2-carboxamide]			5.742 mL/min/g	0.63 µM (≈ 0.228 µg/mL)	5.7 mL.min^–1.g^–1	> 100 µM	0.57 µM	1.73		
NC(=O)c1sc(N2CCOCC2)cc1OCCc1ccc(F)cc1 [Compound 40]				0.9 µM (≈ 0.315 µg/mL)	13 mL.min^–1.g^–1	> 100 µM		1.85		12.72 mL/min/g
COc1cccc(CCOc2cc(N3CCOCC3)sc2C(N)=O)c1 [Compound 41, 3-[2-(3-Methoxyphenyl)ethoxy]-5-morpholinothiophene-2-carboxamide]			10.31 mL/min/g	1.6 µM (≈ 0.58 µg/mL)	10 mL.min^–1.g^–1	89 µM		1.85		
COc1ccccc1CCOc1cc(N2CCOCC2)sc1C(N)=O [Compound 42, 3-[2-(2-Methoxyphenyl)ethoxy]-5-morpholinothiophene-2-carboxamide]			26.42 mL/min/g	> 20 µM	26 mL.min^–1.g^–1	> 100 µM		1.95		
NC(=O)c1sc(N2CCOCC2)cc1OCCc1ccncc1 [Compound 43, 5-Morpholino-3-[2-(4-pyridyl)ethoxy]thiophene-2-carboxamide]			8.013 mL/min/g	> 20 µM	8 mL.min^–1.g^–1	> 100 µM		0.617		
N#Cc1ccc(CCOc2cc(N3CCOCC3)sc2C(N)=O)cc1 [Compound 44, 3-[2-(4-Cyanophenyl)ethoxy]-5-morpholino-thiophene-2-carboxamid]			4.758 mL/min/g	14 µM (≈ 5 µg/mL)	4.8 mL.min^–1.g^–1	> 100 µM		1.56		
NC(=O)c1sc(N2CCOCC2)cc1OCC1CCCO1 (stereo not drawn) [Compound 45, 5-Morpholino-3-((tetrahydrofuran-2-yl)methoxy)thiophene-2-carboxamide]			4.249 mL/min/g	> 20 µM	4.3 mL.min^–1.g^–1	> 100 µM				
NC(=O)c1sc(N2CCOCC2)cc1OCCN1CCOCC1 [Compound 47, 5-Morpholino-3-(2-morpholinoethoxy)thiophene-2-carboxamide]			0.8847 mL/min/g	> 20 µM	0.9 mL.min^–1.g^–1	> 100 µM		0.189		
NC(=O)c1sc(N2CCOCC2)cc1OCc1ccccc1 [Compound 48, 3-Benzyloxy-5-morpholinothiophene-2-carboxamide]			14.31 mL/min/g	> 20 µM	14 mL.min^–1.g^–1	> 100 µM		1.52		
NC(=O)c1sc(N2CCOCC2)cc1CCCc1ccccc1 [Compound 49, 5-Morpholino-3-(3-phenylpropyl)thiophene-2-carboxamide]			20.17 mL/min/g	3.5 µM (≈ 1.16 µg/mL)	20 mL.min^–1.g^–1	69 µM				
NC(=O)c1sc(N2CCOCC2)cc1OCC(O)c1ccccc1 (stereo not drawn) [Compound 51, 3-(2-Hydroxy-2-phenylethoxy)-5-morpholinothiophene-2-carboxamine]			3.788 mL/min/g	> 20 µM	3.8 mL.min^–1.g^–1	> 100 µM		1.12		
NC(=O)c1sc(N2CCOCC2)cc1OC1CCCc2ccccc21 (stereo not drawn) [Compound 52, 5-Morpholino-3-tetralin-1-yloxy-thiophene-2-carboxamide]			5.383 mL/min/g	> 20 µM	5.4 mL.min^–1.g^–1	56 µM		2.22		
NC(=O)c1sc(N2CCOCC2)cc1OC1CCc2ccccc21 (stereo not drawn) [Compound 53, 3-Indan-1-yloxy-5-morpholinothiophene-2-carboxamide]			1.393 mL/min/g	> 20 µM	1.4 mL.min^–1.g^–1	> 100 µM		1.15		
NC(=O)c1ccc(N2CCOCC2)cc1OCCc1ccccc1 [Compound 54, 4-Morpholino-2-phenethoxybenzamide]			12.21 mL/min/g	> 20 µM	12 mL.min^–1.g^–1	> 100 µM		2.11		
NC(=O)c1nc(N2CCOCC2)ccc1OCCc1ccccc1 [Compound 57, 6-Morpholino-3-(2-phenylethoxy)pyridine-2-carboxamide]			2.315 mL/min/g	6.9 µM (≈ 2.26 µg/mL)	2.3 mL.min^–1.g^–1	> 100 µM		1.61		
